Results from patent publication US20180161300A1, “CITRIN INHIBITORS FOR THE TREATMENT OF CANCER” (Yeda Research And Development Co. Ltd., priority 2015, published 2018).

Legend:
[1] = test system: Citrin; experiment: Western blot of citrin protein after shCitrin; assay type: cell-based, human; conditions: MDA-MB-435, Dox induction
Description: Cells were lysed in RIPA (Sigma-Aldrich) and 0.5% protease inhibitor cocktail (Calbiochem). After centrifugation, the supernatant was collected and protein content was evaluated by the Bradford assay. One hundred micrograms from each sample under reducing conditions were loaded into each lane and separated by electrophoresis on a 10% SDS polyacrylamide gel. After electrophoresis, proteins were transferred to Immobilon transfer membranes (Tamar). Non-specific binding was blocked by incubation with TBST (10 mM Tris-HCl (pH 8.0), 150 mM NaCl, 0.1% Tween 20), containing 3% albumin from bovine serum for 1 hour at 25° C. Membranes were subsequently incubated with antibodies against Citrin (1:200, H00010165-M01, Abnova), ASS1 (1:500, sc-99178, Santa Cruz Biotechnology) and p97 (1:10,000, PA5-22257, Thermo Scientific). Antibody was detected using peroxidase-conjugated AffiniPure goat anti-rabbit IgG or goat anti-mouse IgG (Jackson ImmunoResearch) and enhanced chemiluminescence Western blotting detection reagents (EZ-Gel, Biological Industries). Gels were quantified by Gel Doc XR+(BioRad) and analysed by ImageLab 4.1 software (BioRad). The band area was calculated by the intensity of the band. The obtained value was then divided by the value obtained from the loading control. […]

[2] = test system: U2OS human osteosarcoma cell-line transduced with shASS1; experiment: Crystal violet proliferation, arginine deprivation combined with drug treatments; assay type: cell-based
Description: Cells were seeded in 12-well plates at 70,000 cells/well in a triplicate. Time 0 was calculated as the time the cells became adherent, which was after about 6 hours from plating. For each time point, cells were washed with PBS X1 and fixed in 4% PFA (in PBS). Cells were then stained with 0.1% Crystal Violet (Catalog #: C0775, Sigma-Aldrich) for 20 minutes (1 ml per well) and washed with water. Cells were then incubated with 10% acetic acid for 20 minutes with shaking. Extract was then diluted 1:4 in water and absorbance was measured at 590 nm every 24 hours.
U2OS human osteosarcoma cell-line was seeded in 6-well plates at 80,000 cells/well. The following day, cells were treated with either 100 nM Rapamycin (#R0395, Sigma-Aldrich) or with 10 μM 5FU (#F6627, Sigma-Aldrich) in regular medium, with 10% dialyzed FCS-arginine-free-RPMI (Catalogue No. 06-1104-34-1A, Biological Industries, Kibbutz beit-haemek, Israel), or with both arginine depleted medium and one of these drugs. Rapamycin and 5FU were renewed into the medium every day, whereas fresh arginine-free medium was supplemented twice a week.

[3] = biological target: T1, Citrin (Homo sapiens, UniProt Q9UJS0); experiment: Metabolomics analysis for potential citrin inhibitors (15N-alpha-glutamine labelling, GC-MS); assay type: cell-based; parameters: endogenous in cells; host or cells: U2OS osteosarcoma cells; conditions: U2OS, 4 mM L-Glutamine (ALPHA-15N), compound 10-100 μM, 24 hours
T1 sequence (Q9UJS0 1-675): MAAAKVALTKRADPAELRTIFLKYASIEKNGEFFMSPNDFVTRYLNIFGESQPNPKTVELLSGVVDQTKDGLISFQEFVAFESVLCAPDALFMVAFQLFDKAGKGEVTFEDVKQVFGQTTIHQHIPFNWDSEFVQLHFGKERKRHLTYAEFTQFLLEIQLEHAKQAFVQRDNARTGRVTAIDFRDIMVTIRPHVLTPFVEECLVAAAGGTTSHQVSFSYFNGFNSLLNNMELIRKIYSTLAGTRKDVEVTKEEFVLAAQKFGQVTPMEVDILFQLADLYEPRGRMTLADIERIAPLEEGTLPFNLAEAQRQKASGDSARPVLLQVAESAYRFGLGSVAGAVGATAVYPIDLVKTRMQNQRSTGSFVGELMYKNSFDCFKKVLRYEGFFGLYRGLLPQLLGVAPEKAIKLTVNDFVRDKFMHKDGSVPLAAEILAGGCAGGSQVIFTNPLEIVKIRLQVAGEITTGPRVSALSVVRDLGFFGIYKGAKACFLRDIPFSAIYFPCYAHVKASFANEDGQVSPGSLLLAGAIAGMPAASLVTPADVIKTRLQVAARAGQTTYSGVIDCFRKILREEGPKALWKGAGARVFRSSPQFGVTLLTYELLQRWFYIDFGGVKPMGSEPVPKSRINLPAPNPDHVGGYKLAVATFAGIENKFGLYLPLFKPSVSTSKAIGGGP
Description: Osteosarcoma cell line (U2OS) were seeded at 1.5 to 2×10^6 cells per 10 cm plate. The next day (60% confluence) the cells were incubated with 4 mM of L-Glutamine (ALPHA-15N, 98%; Cat. Number: NLM-1016-1; Cambridge Isotope Laboratories) in the presence of either control (medium only) or one of compounds 1, 2, or 3 (at a concentration range between 10-100 μM), for 24 hours. Compound “1”=D-Glutamic acid; compound “2”=L-glutamic acid-5-methyl ester; “compound “3”=L-glutamic acid-gamma-benzyl ester. Compounds 1-3 are commercially available and were bought from Sigma Aldrich. Subsequently, cells were washed with ice-cold saline, lysed with 50% methanol in water and quickly scraped followed by three freeze-thaw cycles in liquid nitrogen. The insoluble material was pelleted in a cooled centrifuge (4° C.) and the supernatant was collected for consequent GC-MS analysis. Samples were dried under air flow at 42° C. using a Techne Dry-Block Heater with sample concentrator (Bibby Scientific) and the dried samples were treated with 40 μl of a methoxyamine hydrochloride solution (20 mg ml^−1 in pyridine) at 37° C. for 90 minutes while shaking followed by incubation with 70 μl N,O-bis (trimethylsilyl) trifluoroacetamide (Sigma) at 37° C. for an additional 30 minutes.
GC-MS analysis used a gas chromatograph (7820AN, Agilent Technologies) interfaced with a mass spectrometer (5975 Agilent Technologies). An HP-5 ms capillary column 30 m×250 μm×0.25μm (19091S-433, Agilent Technologies) was used. Helium carrier gas was maintained at a constant flow rate of 1.0 ml min −1. The GC column temperature was programmed from 70 to 150° C. via a ramp of 4° C. min −1, […] via a ramp of 9° C. min −1, 215-300° C. via a ramp of 25° C. min −1 and maintained at 300° C. for an additional 5 minutes. The MS was by electron impact ionization and operated in full-scan mode from m/z=30-500. The inlet and MS transfer line temperatures were maintained at 280° C., and the ion source temperature was 250° C. Sample injection (1 μl) was in splitless mode.
Specifically, Aspartate at a mass of M+1 is a metabolite that comes out of the mitochondria via Citrin.

[4] = biological target: T1, Citrin; conditions: at 1 about mM; cited from earlier work

Compound: 5′-GTATCCTATCGATCTTGTA-3′ (expressed or natural sequence) [sh909]
- citrin protein production (Western blot) [1]: no production of citrin

Compound: 5′-TTAAGAAAGTGCTACGCTA-3′ (expressed or natural sequence) [sh901]
- citrin protein production (Western blot) [1]: no production of citrin

Compound: O=c1[nH]cc(F)c(=O)[nH]1 [5FU, Fluorouracil]
- proliferation, drug together with arginine depleted medium ([2]; U2OS shASS1, arginine depleted medium plus 100 nM Rapamycin or 10 μM 5FU): significant additive beneficial effect
- proliferation, isolated drug treatment ([2]; U2OS shASS1, complete medium, 100 nM Rapamycin or 10 μM 5FU): more beneficial than Rapamycin

Compound: N[C@H](CCC(=O)O)C(=O)O [Compound 1, D-Glutamic acid]
- Uracil M+1 inhibition (in words) [3]: inhibited

Compound: COC(=O)CC[C@H](N)C(=O)O [Compound 2, L-glutamic acid-5-methyl ester]
- Uracil M+1 inhibition (in words) [3]: inhibited

Compound: N[C@@H](CCC(=O)OCc1ccccc1)C(=O)O [Compound 3, L-glutamic acid-gamma-benzyl ester]
- Aspartate M+1 relative to control [3]: inhibited
- Uracil M+1 inhibition [3]: ~35%

Compound: CCN1C(=O)C=CC1=O [N-ethylmaleimid]
- inhibition of citrin in vitro [4]: about 50%
